Three compounds from EP2801573A1, “Hydantoine derivatives as CD38 inhibitors” (SANOFI, priority 2013, dated 2014) can be followed below.

Assay [1] deals with T1, human recombinant CD38 enzyme (Homo sapiens, UniProt P28907).
T1 construct: purchased R&D Systems H7006
T1 sequence (P28907 1-300): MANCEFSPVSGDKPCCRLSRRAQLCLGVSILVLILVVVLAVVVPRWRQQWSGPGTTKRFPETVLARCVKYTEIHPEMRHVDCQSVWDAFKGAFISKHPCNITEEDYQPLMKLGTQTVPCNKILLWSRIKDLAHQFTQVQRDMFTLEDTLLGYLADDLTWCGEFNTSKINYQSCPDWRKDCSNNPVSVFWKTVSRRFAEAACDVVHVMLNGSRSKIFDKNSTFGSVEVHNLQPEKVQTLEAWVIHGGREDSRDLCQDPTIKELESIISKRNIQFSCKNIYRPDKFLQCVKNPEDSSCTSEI
As to the kind of experiment: Human recombinant enzyme assay (fluorimetric CD38 enzyme assay, ε-NAD substrate). To be noted: recombinant CD38 100 ng/ml, ε-NAD 100 µM, pH = 6.0, 37°C, reaction time 30 min; read-out: IC50 (nM) ENAD. It counts as biochemical. Here is the method: Enzyme assay on human recombinant CD38 enzyme were performed in order to determine the in vitro potency of the newly synthesized compounds. IC50 values were determined for the test compounds and used to explore the structure-activity relationships (SAR).
(§1) N6-etheno-NAD (ε-NAD), a NAD analogue previously shown to be a convenient substrate of CD38 enzyme activity (Graeff et al. J. Biol. Chem. 269, pp 30260-30367, […]) was used to measure the activity of human recombinant CD38 and cell surface enzyme activity.
A fluorimetric CD38 enzyme assay was performed as described by Graeff et al. The reaction was started with 10 µl of N6-etheno-NAD (ε-NAD) substrate, final concentration 100 µM, in a final volume of 0.1 ml buffered with 50 mM HEPES, 0.05% BRIJ, pH = 6.0 containing 100 ng/ml recombinant CD38 (R&D Systems, H7006). Cleavage of ε-NAD, which causes a 10-fold fluorescence enhancement, was continuously followed at 37°C in a BMG Polarstar spectrofluorometer at an emission wavelength of 410 nm and an excitation of 300 nm, reaction time was 30 min. NADase activity was expressed as Δ relative fluorescence/min. The rate of enzyme reactions were compared in the presence and absence of inhibitor molecule, the IC50 values were calculated with Biostat Speed program.

The target of assay [2] is T2, natural cell surface human CD38 enzyme (Homo sapiens, UniProt P28907).
T2 construct: The A549 cells express active CD38 enzyme on the cell surface; endogenous in cells; host or cells: A549 human lung epithelial cells (ATCC CCL 185)
T2 sequence (P28907 1-300): T1 sequence (P28907 1-300)
As to the kind of experiment: Cell surface enzyme assay on A549 cells. To be noted: A549 human lung epithelial cells, pre-incubated 15 min, ε-NAD 100 µM, 60 min, pH=7.4. It counts as cell-based. The procedure:
A549 human lung epithelial cells were used as enzyme source. The A549 cells express active CD38 enzyme on the cell surface.
as §1
Type II-like human lung epithelial cells A 549 (ATCC CCL 185) were grown in RPMI 1640 medium supplemented with 10% fetal calf serum, 2mM 1-glutamine and penicillin/streptomycin 1% in a humidified incubator with an atmosphere of 95% air and 5% CO2 at 37 °C. At about 70-80% confluence, cells were detached with trypsin/EDTA solution to form a cell suspension and counted. Cell viability was higher as 95% using trypan blue dye. Cells were plated at a density of 500.000 cells/well (24 well plate), before 24 hours of starting the enzyme assay. The medium was removed and replaced by assay buffer (20 mM HEPES, pH=7.4 containing 140 mM NaCl, 5 mM KCl, 1 mM MgSO4 1 mM CaCl2, 1mM Na2HPO4, 5.5 mM glucose).
A549 cells (800.000/well, 500 µl) were pre-incubated in the presence and absence of inhibitors for 15 min before the addition of ε-NAD, final substrate concentration was 100 µM. After 60 min, the plate was centrifuged and 100 µl of supernatant was removed and measured fluorimetrically in BMG Polarstar spectrofluorimeter at an emission wavelength of 410 nm and an excitation of 300 nm. The mean difference in the fluorescence between reaction stopped at 0 and 60 min was used an arbitrary unit of NADase activity. The NADase activity in the absence and presence of inhibitors were compared and IC50 values were calculated.

For `O=C1N/C(=C\c2ccncc2)C(=O)N1CC1CCCO1` (stereo not drawn) [Compound 60, 5-[1-Pyridin-4-yl-meth-(Z)-ylidene]-3-(tetrahydro-furan-2-ylmethyl)-imidazolidine-2,4-dione], the IC50 in assay [1] amounted to 22 nM; in assay [2], 81.8 nM.
As to `CC(C)(O)CN1C(=O)N/C(=C\c2ccncc2)C1=O` [Compound 61, 3-(2-Hydroxy-2-methyl-propyl)-5-[1-pyridin-4-yl-meth-(Z)-ylidene]-imidazolidine-2,4-dione], the results for the IC50 in assay [1] and in assay [2] were 25 nM and 288 nM, respectively.
In the same order, the values of `O=C1N/C(=C\c2ccncc2)C(=O)N1CC(F)(F)F` [Compound 62, 5-[1-Pyridin-4-yl-meth-(Z)-ylidene]-3-(2,2,2-trifluoro-ethyl)-imidazolidine-2,4-dione] are 57 nM and 604 nM.

As a reminder, the IC50 is the concentration needed to halve the response being measured.
